Measured values reported in patent US20250313879A1, “Fluorescent Probe for Detecting Peptide Bond Hydrolase” (The University of Tokyo, priority 2022, published 2025).
In brackets after ≈: the same amount, converted by molar mass.

Key:
[1] = test system: aminopeptidase activity in human plasma sample; test: Enzyme activity assay in microdevice with human plasma, aminopeptidase probes; type: biochemical; settings: 50 μM probe, 37° C. for 2 hours
Description: • 1. Ala-sHMRG as a fluorescent probe for detecting aminopeptidase activity was diluted with an assay buffer to 100 μM. The composition of the assay buffer is 100 mM HEPES-NaOH (pH 7.4), 1 mM MgCl2, 0.1% BSA, 1 mM DTT, 1 mM Triton X-100, • 2. Next, a human plasma sample was diluted by 500 times with the above assay buffer, and mixed in an equal amount with the diluted solution of the probe. At this time, the final concentrations of both are 50 μM for Ala-sHMRG and 1,000 fold dilution for the human plasma sample. • 3. The mixed solution of both was then added to a microdevice, followed by the addition of sealing oil to enclose the solution in each well. • 4. The microdevice in which the solution was enclosed was incubated at 37° C. for 4 hours, and then the fluorescence intensity of each well was measured with a fluorescence microscope.
• 1. Leu-sHMRG as a fluorescent probe for detecting aminopeptidase activity was diluted with an assay buffer to 100 μM. The composition of the assay buffer is 100 mM HEPES-NaOH (pH 7.4), 1 mM MgCl2, 1 mM DTT, 3 mM Triton X-100. • 2. Next, a human plasma sample was diluted by 2,500 times with the above assay buffer, and mixed in an equal amount with the diluted solution of the probe. At this time, the final concentrations of both are 50 μM for Leu-sHMRG and 5,000 fold dilution for the human plasma sample. • 3. The mixed solution of both was then added to a microdevice, followed by the addition of sealing oil to enclose the solution in each well. • 4. The microdevice in which the solution was enclosed was incubated at 37° C. for 4 hours, and then the fluorescence intensity of each well was measured with a fluorescence microscope.
(§1) • 5. Met-sHMRG as a fluorescent probe for detecting aminopeptidase activity was diluted with an assay buffer to 100 μM. The composition of the assay buffer is 100 mM HEPES-NaOH (pH 7.4), 1 mM MgCl2, 1 mM CaCl2, 1 mM DTT, 3 mM Triton X-100. • 6. Next, a human plasma sample was diluted by 500 times with the above assay buffer, and mixed in an equal amount with the diluted solution of the probe. At this time, the final concentrations of both are 50 μM for Met-sHMRG and 1,000 fold dilution for the human plasma sample. • 7. The mixed solution of both was then added to a microdevice, followed by the addition of sealing oil to enclose the solution in each well. • 8. The microdevice in which the solution was enclosed was incubated at 37° C. for 2 hours, and then the fluorescence intensity of each well was measured with a fluorescence microscope.
as §1, with “• 9. Tyr-sHMRG” for “• 5. Met-sHMRG”, “• 10.” for “• 6.”, “for Tyr-sHMRG” for “for Met-sHMRG”, “• 11.” for “• 7.”, “• 12.” for “• 8.”, “for 4” for “for 2”
• 1. Lys-sHMRG as a fluorescent probe for detecting aminopeptidase activity was diluted with an assay buffer to 100 μM. The composition of the assay buffer is 100 mM HEPES-NaOH (pH 7.4), 1 mM MgCl2, 1 mM CaCl2, 1 mM DTT, 3 mM Triton X-100. • 2. Next, a human plasma sample was diluted by 10,000 times with the above assay buffer, and mixed in an equal amount with the diluted solution of the probe. At this time, the final concentrations of both are 50 μM for Lys-sHMRG and 20,000 fold dilution for the human plasma sample. • 3. […]

[2] = Solubility in sealing oil (hexadecane); type: physicochemical; settings: oil or lipid, kinetic from dmso stock, room temperature (25° C.), three tests, average value±standard deviation
Description: That is, 1 μL of a 10 mM DMSO solution of the test compound was added with respect to 100 μL of hexadecane as sealing oil, and the mixture was sonicated and suspended at room temperature (25° C.) for 1 minute. Thereafter, the solution was centrifuged for 30 seconds, 50 μL of the supernatant was collected and mixed with 100 μL of methanol, and a compound dissolved in hexadecane was extracted. Thereafter, the methanol solution from which the compound was extracted was analyzed by ultra performance liquid chromatography (UPLC) (eluent: A/B=95/5>5/95, A: 0.1% formic acid-containing 100% H2O, B: 0.1% formic acid-containing 100% CH3CN), and the concentration of the compound in the methanol solution was calculated from the peak area. In the calculation of the solution concentration using the UPLC peak area, solutions having a plurality of concentrations were prepared and measured for each compound, then a calibration curve was prepared (FIG. 5), and the calculation was performed according to the calibration curve.

aminopeptidase A [3] = biological target: T1, aminopeptidase A (Homo sapiens, UniProt Q07075); test: Signal/noise ratio of enzymolysate in cuvette; type: biochemical; settings: 10 μM probe, 170 ng/mL aminopeptidase A, 25° C. 11 hours, @616 nm
T1 sequence (Q07075 whole entry, species assumed): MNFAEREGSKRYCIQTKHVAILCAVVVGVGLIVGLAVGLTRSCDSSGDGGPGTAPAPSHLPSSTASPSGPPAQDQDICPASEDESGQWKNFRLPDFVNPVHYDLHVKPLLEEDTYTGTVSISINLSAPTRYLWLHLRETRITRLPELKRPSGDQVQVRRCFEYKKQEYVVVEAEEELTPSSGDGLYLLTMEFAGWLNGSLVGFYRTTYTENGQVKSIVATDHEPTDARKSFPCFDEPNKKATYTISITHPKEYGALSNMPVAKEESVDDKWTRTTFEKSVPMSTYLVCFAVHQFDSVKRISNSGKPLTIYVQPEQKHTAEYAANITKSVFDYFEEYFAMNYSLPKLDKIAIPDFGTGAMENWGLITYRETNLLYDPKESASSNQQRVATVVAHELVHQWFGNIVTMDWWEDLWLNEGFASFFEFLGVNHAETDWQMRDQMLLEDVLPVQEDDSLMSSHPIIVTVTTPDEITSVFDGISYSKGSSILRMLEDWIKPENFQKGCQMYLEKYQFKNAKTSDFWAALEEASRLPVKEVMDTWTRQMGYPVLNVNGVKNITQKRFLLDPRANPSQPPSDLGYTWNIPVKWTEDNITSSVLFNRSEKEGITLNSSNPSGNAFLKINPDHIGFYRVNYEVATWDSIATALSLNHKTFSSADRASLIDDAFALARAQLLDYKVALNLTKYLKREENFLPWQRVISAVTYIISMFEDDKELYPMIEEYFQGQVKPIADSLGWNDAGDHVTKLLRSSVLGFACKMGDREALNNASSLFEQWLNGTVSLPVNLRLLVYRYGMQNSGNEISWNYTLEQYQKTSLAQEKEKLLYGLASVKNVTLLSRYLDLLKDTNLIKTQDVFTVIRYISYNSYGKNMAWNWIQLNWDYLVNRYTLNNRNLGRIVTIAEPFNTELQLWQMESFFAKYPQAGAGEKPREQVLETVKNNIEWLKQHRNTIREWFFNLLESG
Description: (§2) For two types of compounds Glu-sSiR (PB206/Example 12) and GP-sHMRG (PB109/Example 7), the signal/noise ratios of the enzymolysates before and after the enzyme reaction in the cuvette and the microdevice were each measured as follows. In the following experiments, the composition of the assay buffer is 100 mM HEPES-NaOH (pH 7.4), 1 mM MgCl2, 1 mM CaCl2), […].
Glu-sSiR was diluted with an assay buffer so as to be 10 μM, then added to a quartz cuvette, and the fluorescence spectrum before the enzyme reaction was measured with a fluorometer (excitation wavelength: 570 nm). Thereafter, aminopeptidase A was added so that the concentration in the solution was 170 ng/mL, the solution was incubated at 25° C. for 11 hours, and then the fluorescence spectrum was measured. The fluorescence spectra before and after the enzyme reaction were compared, the ratio of the values at a wavelength at which the fluorescence intensity was maximized was calculated as the signal/noise ratio of the enzymolysate, the ratio was 32 times (@616 nm) (see FIG. 7A).

aminopeptidase A [4] = biological target: T1, aminopeptidase A; test: Signal/noise ratio of enzymolysate in microdevice; type: biochemical
Description: as §2
For Glu-sSiR, three kinds of solutions of (i) only an assay buffer, (ii) 30 μM of Glu-sSiR, and (iii) 30 μM of Glu-sSiR and 0.2 ng/mL of aminopeptidase A were prepared, and each solution was added to a microdevice, followed by the addition of sealing oil to enclose the solution in each well. The microdevice in which the solution was enclosed was incubated at 37° C. for 4 hours, and then the fluorescence intensity of each well was measured with a fluorescence microscope. When a difference between the average values of the fluorescence intensities of the respective wells in (ii) and (i) was defined as noise, a difference between the average value of the fluorescence intensities of the wells in which the enzyme was encapsulated in (iii) and the average value of the fluorescence intensities of the respective wells in (i) was defined as a signal, and a ratio of these values was calculated as the signal/noise ratio of the enzymolysate, the ratio was 8.3 times (see FIG. 8, panel A). […]

CD13 = test: Diagnostic experiment of pancreatic cancer utilizing single-molecule enzyme activity of CD13; type: biochemical, human; settings: patients with pancreatic cancer compared with healthy subjects; 50 μM probe, plasma 20,000 fold dilution, 37° C. 2 hours
Description: In order to detect the single-molecule enzyme activity of CD13, an experiment to verify the availability of a probe to which […] is bonded as a reaction point (in General Formula (I) or (II), an alanine residue was introduced as —CO—R0 or —CO—R^10) to detect a pancreatic cancer biomarker was performed in the following procedures. • 1. Ala-sSiR as a CD13 detecting probe was diluted with an assay buffer to 100 μM. The composition of the assay buffer is 100 mM HEPES-NaOH (pH 7.4), 1 mM MgCl2, 1 mM CaCl2), 1 mM DTT, 3 mM Triton X-100. • 2. Next, human plasma samples collected from 30 patients with pancreatic cancer and 30 healthy subjects were each diluted by 10,000 times with the above assay buffer, and mixed in an equal amount with the diluted solution of Ala-sSiR. […] The microdevice in which the solution was enclosed was incubated at 37° C. for 2 hours, and then the fluorescence intensity of each well was measured with a fluorescence microscope.
Specifically, in this example, an ROC curve for determination based on the enzyme activity of CD13 determined based on the proportion of wells with a luminance of 2500 AU or more is created, and when a threshold is subtracted at the time when the number of wells of a signal is 3%, the sensitivity is 27% and the specificity is 100% (the right view of FIG. 3). […]

## Cc1ccc(S(=O)(=O)O)cc1C1=C2C=CC(=N)C=C2[Si](C)(C)c2cc(NC(=O)[C@@H](N)CCC(=O)O)ccc21 [Glu-sSiR]
[1]; human plasma 1,000 fold dilution
  fluorescence intensity of wells in which the reacting enzyme was enclosed: increase in fluorescence intensity was observed
[2]
  solubility at 1 min: 0.3 ± 0.096 µM (≈ 0.166 µg/mL)
Aminopeptidase A [3]
  signal/noise ratio of the enzymolysate: 32 times
Aminopeptidase A [4]; aminopeptidase A
  ratio of the signal/noise ratio in the microdevice to the signal/noise ratio in the cuvette: 0.26
Aminopeptidase A [4]; microdevice, 30 μM probe, 0.2 ng/mL aminopeptidase A, 37° C. 4 hours
  signal/noise ratio of the enzymolysate: 8.3 times

## Cc1ccc(S(=O)(=O)O)cc1C1=C2C=CC(=N)C=C2[Si](C)(C)c2cc(NC(=O)[C@H](C)N)ccc21 [Ala-sSiR]
[1]; human plasma 20,000 fold dilution
  fluorescence intensity of wells in which the reacting enzyme was enclosed: increase in fluorescence intensity was observed
CD13
  number of wells in which the luminance is 2,500 AU or more (CD13 considered enclosed): significant increase
